In the RepoRT retention time repository one finds LC retention time data, which are given here for 72 molecules.

This data set in a line: Waters SunFire C18, 150 × 2.1 mm, 3.5 µm, 25 °C, 0.25 mL/min, estimated dead time 1.3 min; A: water + 0.1% formic acid; B: methanol; gradient (min/%B) 0/5 30/100. The settings on record: stereoisomer not certain.
Turning to `COC(=O)C1CC23CCCN4CCC5(c6cc(Cc7ccc8c(c7)C79CCN%10CCCC%11(CCC7(C(C(=O)OC)C%11)N8C)C%109)ccc6N(C)C15CC2)C43` (configuration not stated), the LC retention time was 19.5 min.

On to `CCC12CCCN3C(=O)C=C(c4ccccc4NC(=O)CC1)C32O` (configuration not stated), for which the LC retention time was 18.1 min.

With `CC=C1CN2C(C3=CC4C5CC6N(CCC67c6ccccc6N(C3=O)C47)CC5=CC)CC34c5ccccc5N5C(=O)CC=C(C1CC23)C54` (configuration not stated), the LC retention time was 16 min.

Take `C=C1C2CC(=O)c3[nH]c4ccccc4c3C1N(C)CC2=CC` (configuration not stated): the LC retention time is 14.2 min.

Regarding `CC=C1CN2CCc3c4n(c5ccccc35)C(C(=O)OC)C1CC42` (configuration not stated), the LC retention time was 17.5 min.

Take `CC=C1C[N+]2(C)CCc3c4n(c5ccccc35)C(CO)C1CC42` (configuration not stated): the LC retention time was 14.8 min.

`CC=C1CN2CCC3(O)c4ccccc4N4C=C(C(=O)OC)C1CC2C43O` (configuration not stated): the LC retention time was 16.5 min.

`COC(=O)C1CC23CCCN4CCC5(c6ccccc6N(C(=O)OC)C15CC2)C43` (configuration not stated): the LC retention time was 26.9 min.

Take `COC(=O)C1CC23CCCN4C(=O)CC5(c6ccccc6N(C)C15CC2)C43` (configuration not stated): the LC retention time is 15.1 min.

As to `COC(=O)C1C(O)CCC2CN3CCc4c([nH]c5cc(OC)ccc45)C3CC21` (configuration not stated), the LC retention time is 14.1 min.

In the case of `C=CC12C=CCN3CCC4(c5ccccc5NC(=O)C4C1)C32` (configuration not stated), the LC retention time is 11.7 min.

For the molecule `CCC1CN2CCc3c([nH]c4ccccc34)C2CC1CC1c2[nH]c3ccccc3c2CCN1C` (configuration not stated), the LC retention time is 14.7 min.

As to `O=c1c2cncc3c2c(c2n1CCc1c-2[nH]c2ccccc12)C=C3`, the LC retention time was 22.1 min.

Consider `COC(=O)N1c2ccc(OC)cc2C23CCN4C(=O)C=CC45CCC12C3C5` (configuration not stated), for which the LC retention time is 28.1 min.

`O=C1CC2OCC=C3CN4CCC56c7ccccc7N1C5C2C3CC46` (configuration not stated): the LC retention time is 11 min.

In the case of `CCC1CN2CCc3c([nH]c4ccccc34)C2CC1CCO` (configuration not stated), the LC retention time is 14.1 min.

In the case of `COc1ccc2[nH]c3c(c2c1)CCN1CC2CC3C1C(C(C)O)C2` (configuration not stated), the LC retention time is 14.9 min.

Turning to `O=C1CC=C2C3CC4N(CCC45c4ccccc4N1C25)CC3=CCO` (configuration not stated), the LC retention time was 12.1 min.

As to `CC=C1CN(C)CC2Cc3c([nH]c4ccccc34)C(=O)CC12` (configuration not stated), the LC retention time is 14.3 min.

As for `CCC1=C(CC(=O)OC)C(O)(c2nccc3c2[nH]c2ccccc23)OC1=O` (configuration not stated), the LC retention time was 23.2 min.

For the molecule `CN1CCC23C(=O)CC4C(=CCOC5CC(=O)N(c6c(O)cccc62)C3C54)C1` (configuration not stated), the LC retention time was 13.4 min.

`CCC1CN(C)C2Cc3c([nH]c4ccccc34)C(O)(c3cc4c5c([nH]c4cc3OC)C3(C(=O)OC)CC4CC(CC)C3N(CC5)C4)CC1C2C(=O)OC` (configuration not stated): the LC retention time is 16.3 min.

As to `C=CC1CN2CCc3c([nH]c4cc(O)ccc34)C2CC1CC1c2[nH]c3ccccc3c2CCN1C` (configuration not stated), the LC retention time was 13.3 min.

For `C=CC(CO)C1CCN2CCc3c([nH]c4ccccc34)C2C1` (configuration not stated), the LC retention time was 18.5 min.

As for `CCC1CC2CN3CCc4c([nH]c5cc(OC)c(OC)cc45)C(C(=O)OC)(C2)C13` (configuration not stated), the LC retention time was 16.3 min.

Turning to `CC=C1CN(C)CCC23C(=O)CC1C1COC(O)C(=O)N(c4ccccc42)C13` (configuration not stated), the LC retention time was 12.1 min.

In the case of `COC(=O)N1c2ccccc2C23CCN4C(=O)C=CC45CCC12C(C5)C(=O)O3` (configuration not stated), the LC retention time was 24.1 min.

`C=C1c2[nH]c3ccccc3c2CN2CCC1C(=CC)C2` (configuration not stated): the LC retention time is 9.26 min.

In the case of `CCC1CN2CCc3c([nH]c4ccccc34)C2CC1CC=O` (configuration not stated), the LC retention time was 14.4 min.

On to `COC(=O)C1C2CC3c4[nH]c5cc(OC)ccc5c4CCN3CC2CC(O)C1OC` (configuration not stated), for which the LC retention time was 16.1 min.

In the case of `COC(=O)C1=COC(C)C2CN3CCC4(C(=O)Nc5cc(OC)c(OC)cc54)C3CC12` (configuration not stated), the LC retention time was 15.8 min.

For the molecule `CCC1CC2CC3c4[nH]c5cc(OC)ccc5c4CCN(C2)C13` (configuration not stated), the LC retention time is 18.6 min.

With `CCC12C=CCN3CCC4(C(=C(C(=O)OC)C1)Nc1cc(O)c(C5C=CC6(CC)CC(C(=O)OC)=C7Nc8c(O)cccc8C78CCN5C68)cc14)C32` (configuration not stated), the LC retention time is 16.7 min.

On to `C=CC1CN2CCc3c([nH]c4ccc(O)cc34)C2CC1CC1c2[nH]c3ccccc3c2CCN1C` (configuration not stated), for which the LC retention time was 13.6 min.

Take `CC=C1CN2C3CC1C1(C(=O)OC)C2CC2(c4cc(O)ccc4N(C)C32)C1OC(=O)c1cc(OC)c(OC)c(OC)c1` (configuration not stated): the LC retention time was 15.8 min.

`CC=C1CN2C3CC1C1(C(=O)OC)C2CC2(c4ccccc4NC32)C1O` (configuration not stated): the LC retention time was 14.9 min.

With `CCC1=CN2CCC3=c4ccccc4=NC3=C2C=C1`, the LC retention time is 14.4 min.

`CC1OCC2C3CC4(O)N(CCC45c4ccccc4N(C(=O)CO)C25)CC13` (configuration not stated): the LC retention time was 11.8 min.

As for `CC=C1CN2CCc3c([nH]c4ccc(O)cc34)C2CC1CCO` (configuration not stated), the LC retention time is 11.7 min.

Turning to `CCC1C2CCN3CCC4(C(=C2C(=O)OC)Nc2ccccc24)C13` (configuration not stated), the LC retention time is 13.7 min.

Regarding `CC1OCC2C3CC(=O)C4(CCN(C)CC13)c1ccccc1NC24` (configuration not stated), the LC retention time was 15.9 min.

`CC=C1CN(C)CC2(C(=O)OC)Cc3c([nH]c4ccccc34)C(=O)CC12` (configuration not stated): the LC retention time was 14.3 min.

Consider `CCC1CN(C)C2Cc3c([nH]c4ccccc34)C(c3c(OC)ccc4c5c([nH]c34)C3([C-]=[O+]OC)CC4CC(CC)C3N(CC5)C4O)CC1C2C(=O)OC` (configuration not stated), for which the LC retention time was 15.1 min.

On to `CC=C1CN2CCc3c([nH]c4ccccc34)C2CC1C(C=O)C(=O)OC` (configuration not stated), for which the LC retention time was 18.3 min.

On to `CC=C1CN(C)C2Cc3c([nH]c4ccccc34)C(c3cc4[nH]c5c(c4cc3OC)CCN3CC4CC(CC)C3C5(C(=O)OC)C4)CC1C2C(=O)OC` (configuration not stated), for which the LC retention time is 17.5 min.

In the case of `CC1OC=C2C(=O)N3CCc4c([nH]c5ccccc45)C3CC2C1C=O` (configuration not stated), the LC retention time was 27.3 min.

For `CC=C1CN(C)C2Cc3c([nH]c4ccccc34)C(c3ccc4c(CCN)c[nH]c4c3)CC1C2C(=O)OC` (configuration not stated), the LC retention time is 12.6 min.

In the case of `c1ccc2c(c1)NC13CCC4(CCCN5CCC21C54)CC3` (configuration not stated), the LC retention time was 19.5 min.

Consider `CC=C1CN2C3CC45c6ccccc6NC4(O3)C2CC1C5(COC(C)=O)C(=O)OC` (configuration not stated), for which the LC retention time was 17.3 min.

As to `CC=C1CN2CCC34CN5c6c(cccc6C36C2CC1C(C(=O)OC)N6c1ccccc14)C12CCN3CCCC4(CCC51C4C)C32` (configuration not stated), the LC retention time is 15 min.

As for `CCC1CC2CC3c4[nH]c5ccc(OC)cc5c4CCN(C2)C13` (configuration not stated), the LC retention time was 13.6 min.

Regarding `CCC1CN2CCc3c([nH]c4ccccc34)C2CC1CC1NCCc2c1[nH]c1ccccc21` (configuration not stated), the LC retention time was 16.6 min.

In the case of `CCC1(O)C(=O)OCc2c1cc1n(c2=O)Cc2cc3ccccc3nc2-1` (configuration not stated), the LC retention time is 27.2 min.

With `C=CC1CN2CCC3(C(=O)Nc4c3ccc(O)c4C3CCCN3C)C2CC1CC1c2[nH]c3ccccc3c2CCN1C` (configuration not stated), the LC retention time is 8.71 min.

As for `CC=C1C2CC[N+]3([O-])CCC4(C(=C2C(=O)OC)Nc2ccccc24)C13` (configuration not stated), the LC retention time is 15.3 min.

With `CCC12CCCN3CCc4c(n(c5ccccc45)C(c4ccc5c(c4)C46CCN7CCCC8(CCC4(C(C(=O)OC)C8)N5C)C76)C1)C32` (configuration not stated), the LC retention time was 18.7 min.

`CCC1=CC2CN3CCc4c([nH]c5ccccc45)C(C(=O)OC)(C2)C13` (configuration not stated): the LC retention time was 16.1 min.

As to `O=C1CC2OCC=C3CN4CCC56c7ccccc7N1C5C2C3CC46O` (configuration not stated), the LC retention time is 13.3 min.

Take `CCC12CCCN(CCc3c([nH]c4ccccc34)CC1)C2` (configuration not stated): the LC retention time is 15.1 min.

As for `COC(=O)C1CC23CCCN4CCC5(c6cc(Cc7ccc8c(c7)C79CCN%10CCCC%11(CCC7(N8)C(C(=O)O)C%11)C%109)ccc6N(C)C15CC2)C43` (configuration not stated), the LC retention time was 18 min.

Regarding `CC=C1CN2C3CC1C(CO)(C(=O)OC)C2Cc1c3n(C)c2ccccc12` (configuration not stated), the LC retention time was 14.2 min.

Regarding `COC(=O)C1CC23C=CC(=O)N2CCC2(C(=O)OC)c4ccccc4N(C(=O)OC)C12CC3` (configuration not stated), the LC retention time was 25.1 min.

For `CCC1CN(C)CC2(C(=O)OC)Cc3c([nH]c4ccccc34)C(=O)CC12` (configuration not stated), the LC retention time was 15 min.

As for `CC=C1C[N+]2(C)CCC34c5ccccc5NC32C(O)CC1C4(CO)C(=O)OC` (configuration not stated), the LC retention time is 13.4 min.

Take `CC=C1CN2CCC34c5ccccc5N5C(C(=O)OC)C1CC2C53OC(=O)c1c4ccc(O)c1O` (configuration not stated): the LC retention time was 19.6 min.

In the case of `C=CC1C(OC2OC(CO)C(O)C(O)C2O)OC=C(C(=O)OC)C1CC1NCCc2c1[nH]c1ccccc21` (configuration not stated), the LC retention time was 17 min.

`C=CC1CN2CCC1CC2C(O)c1ccnc2ccc(OC)cc12` (configuration not stated): the LC retention time is 13.7 min.

Take `CC=C1C[n+]2ccc3c([nH]c4ccccc43)c2CC1C(C(=O)OC)C1OCC2C3CC4N(CCC45c4ccccc4N1C25)CC3CC` (configuration not stated): the LC retention time is 15.8 min.

As to `CCC12C=CCN3CCC4(C(=C(C(=O)OC)C1)Nc1ccccc14)C32` (configuration not stated), the LC retention time was 18.2 min.

As for `CCC1CC2CC3c4[nH]c5ccccc5c4CCN(C2)C13` (configuration not stated), the LC retention time is 15.3 min.

As to `CCC1=C(CC(=O)OC)C(OC)(c2nccc3c2[nH]c2ccccc23)OC1=O` (configuration not stated), the LC retention time was 27 min.

`CC=C1CN2C(C3C(=O)N4c5ccccc5C56CCN7CC8=CCOC3C(C8CC75)C46)CC34c5ccccc5N5C(=O)CC=C(C1CC23)C54` (configuration not stated): the LC retention time is 15.6 min.
